Measurements as given in patent publication US8841343B2, “Composition for repelling mosquitoes” (Bio & Hnt, Inc., priority 2006, dated 2014).

Tested on: Aedes aegypti
Assay: Examination of repellent activity using skin test (treated human forearm in cage of about 100 mated female mosquitoes)
Type: in vivo
Conditions: for Effective repellency duration (hour) (mean ± standard deviation): maximum measurement time 12 hours
From the text: Citronellic acid and geranic acid, which are used in the present invention, are commercially available or can directly be synthesized. In this embodiment, products of Aldrich Co. (product names are respectively Citronellic acid and Geranic acid) were purchased and used as citronellic acid and geranic acid. Purities of the above two compounds were examined using a gas chromatograph (GC) and a gas chromatograph-mass spectrometry (GC-MS). The compounds having purity of 99.5% or greater were only used. Respective ingredients of the above compounds were added to isopropyl alcohol of 91% to make test samples consisting of a solution in the concentration of 0.5 to 50%. The samples were used for mosquito repellent efficacy experiments.
The test samples manufactured as above underwent repellent effective experiments with respect to Aedes which is a main mosquito group attacking human.
In this embodiment, Aedes aegypti was used as test mosquitoes. The Aedes aegypti was supplied from Korea Research Institute of Bioscience and Biotechnology and reared indoor from generation to generation.
The larvae of the Aedes aegypti were reared in a plastic container of 22×14×7 cm containing distilled water with small amount of one-to-one mixture of chicken feed and yeast. Fresh mosquito pupae were transferred into a paper cup containing water and then placed in a transparent rearing cage to emerge as adults. Here, the rearing cage was constructed with metal net. Males and females of the freshly emerged mosquitoes were transferred to a rearing cage at one-to-one ratio, and left for two or three days for mating. The female mosquitoes were then used for repellency tests. Eight percent (8%) sugar water was supplied for the adult mosquitoes. The following rearing conditions were maintained: light condition of 16 h:8 h (day:night), temperature of 27±2° C., and relative humidity of 80±10%.
In order to examine effectiveness of the mosquito repellent of the prepared sample solutions, one (1) ml of a sample solution was uniformly applied, using a metal rod, on a forearm of a volunteer human test subject between wrist and elbow. Thereafter, the arm treated with the test solution was inserted in a bioassay cage, constructed with Plexiglass of 50×50×50 cm containing approximately 100 mated female mosquitoes. The number of mosquitoes trying to bite was recorded for three minutes in every thirty minutes for up to 4 hours or in every hour for up to 12 hours. The time required to get the arm bitten by two cumulative mosquitoes was regarded as effective repellency duration. A net window of 40×40 cm was present at each side and top of the Plexiglass bioassay cage to allow air ventilation. A 15×15 cm hole was prepared at the front side of the Plexiglass bioassay cage and a long net sleeve was attached to the hole so that the test arm could be put into the cage for repellency test.
At the beginning of each repellency test, an arm treated with no solvent was placed in the bioassay cage containing mosquitoes, in order to examine blood feeding activity of the mated female test mosquitoes. The repellency tests with the test solutions were carried out only when the arm was bitten by at least two mosquitoes for initial three minutes.
Repellent activity against Aedes was examined in accordance with the aforementioned method using the samples which respectively contain citronellic acid and geranic acid. Also, mosquito repellent activity was measured with solutions which contain DEET and Picadirin, wherein the DEET and Picadirin are commercially available mosquito repellents which are currently recommended by the Center for Disease Control of the United States.
In Table 4 to Table 6, the repellent efficiency was calculated using the following Equation 1.

[1] = 10% (0.25 mg/cm^3), 120 minutes
[2] = 10% (0.25 mg/cm^3), 150 minutes
[3] = 10% (0.25 mg/cm^3), 180 minutes
[4] = 10% (0.25 mg/cm^3), 210 minutes
[5] = 10% (0.25 mg/cm^3), 240 minutes
[6] = concentration 10% (0.25 mg/cm^3), time until two cumulative bites, maximum measurement time 240 minutes

CCC(C)OC(=O)N1CCCCC1CCO (stereo not shown) [Picadirin, reference compound]
Repellent efficiency (%) per time (minutes) (10% (0.25 mg/cm^3), 30 minutes): 85.0%
Repellent efficiency (%) per time (minutes) (10% (0.25 mg/cm^3), 60 minutes): 85.0%
Repellent efficiency (%) per time (minutes) (10% (0.25 mg/cm^3), 90 minutes): 85.0%
Repellent efficiency (%) per time (minutes) [1]: 80.0%
Repellent efficiency (%) per time (minutes) [2]: 75.0%
Repellent efficiency (%) per time (minutes) [3]: 72.5%
Repellent efficiency (%) per time (minutes) [4]: 62.5%
Repellent efficiency (%) per time (minutes) [5]: 47.5%
time for which repellent efficiency of 100% was shown (at the level of 0.25 mg/cm^3): less than 30 minutes
Effective repellency duration (minute) (mean ± standard deviation) [6]: 158 min
Effective repellency duration (minute) (mean ± standard deviation) (concentration 10% (0.25 mg/cm^3), time until two cumulative bites, maximum measurement time 240 minutes, listed as Picadrin): 158 ± 27.5 min

CC(C)=CCCC(C)CC(=O)O (racemic) [Citronellic acid, citronellic acid]
Repellent efficiency (%) per time (minutes) (2% (0.05 mg/cm^3), 30 minutes): 100%
Repellent efficiency (%) per time (minutes) (2% (0.05 mg/cm^3), 60 minutes): 84.7%
Repellent efficiency (%) per time (minutes) (2% (0.05 mg/cm^3), 90 minutes): 71.3%
Repellent efficiency (%) per time (minutes) (2% (0.05 mg/cm^3), 120 minutes): 56.4%
Repellent efficiency (%) per time (minutes) (2% (0.05 mg/cm^3), 150 minutes): 37.8%
Repellent efficiency (%) per time (minutes) (2% (0.05 mg/cm^3), 180 minutes): 15.2%
Repellent efficiency (%) per time (minutes) (2% (0.05 mg/cm^3), 210 minutes): 7.4%
Repellent efficiency (%) per time (minutes) (2% (0.05 mg/cm^3), 240 minutes): 0%
Repellent efficiency (%) per time (minutes) (10% (0.25 mg/cm^3), 30 minutes): 100%
Repellent efficiency (%) per time (minutes) (10% (0.25 mg/cm^3), 60 minutes): 100%
Repellent efficiency (%) per time (minutes) (10% (0.25 mg/cm^3), 90 minutes): 100%
Repellent efficiency (%) per time (minutes) [1]: 100%
Repellent efficiency (%) per time (minutes) [2]: 100%
Repellent efficiency (%) per time (minutes) [3]: 85.7%
Repellent efficiency (%) per time (minutes) [4]: 71.4%
Repellent efficiency (%) per time (minutes) [5]: 57.1%
Repellent efficiency (%) per time (hours) (15% (0.375 mg/cm^3), 1 hour): 100%
Repellent efficiency (%) per time (hours) (15% (0.375 mg/cm^3), 2 hours): 75%
Repellent efficiency (%) per time (hours) (15% (0.375 mg/cm^3), 3 hours): 75%
Repellent efficiency (%) per time (hours) (15% (0.375 mg/cm^3), 4 hours): 75%
Repellent efficiency (%) per time (hours) (15% (0.375 mg/cm^3), 5 hours): 50%
Repellent efficiency (%) per time (hours) (15% (0.375 mg/cm^3), 6 hours): 50%
Repellent efficiency (%) per time (hours) (15% (0.375 mg/cm^3), 7 hours): 37.5%
Repellent efficiency (%) per time (hours) (15% (0.375 mg/cm^3), 8 hours): 37.5%
Repellent efficiency (%) per time (hours) (15% (0.375 mg/cm^3), 9 hours): 25%
Repellent efficiency (%) per time (hours) (30% (0.75 mg/cm^3), 1 hour): 100%
Repellent efficiency (%) per time (hours) (30% (0.75 mg/cm^3), 2 hours): 87.5%
Repellent efficiency (%) per time (hours) (30% (0.75 mg/cm^3), 3 hours): 75%
Repellent efficiency (%) per time (hours) (30% (0.75 mg/cm^3), 4 hours): 75%
Repellent efficiency (%) per time (hours) (30% (0.75 mg/cm^3), 5 hours): 75%
Repellent efficiency (%) per time (hours) (30% (0.75 mg/cm^3), 6 hours): 62.5%
Repellent efficiency (%) per time (hours) (30% (0.75 mg/cm^3), 7 hours): 62.5%
Repellent efficiency (%) per time (hours) (30% (0.75 mg/cm^3), 8 hours): 62.5%
Repellent efficiency (%) per time (hours) (30% (0.75 mg/cm^3), 9 hours): 62.5%
Repellent efficiency (%) per time (hours) (30% (0.75 mg/cm^3), 10 hours): 50%
Repellent efficiency (%) per time (hours) (30% (0.75 mg/cm^3), 11 hours): 50%
Repellent efficiency (%) per time (hours) (30% (0.75 mg/cm^3), 12 hours): 50%
Repellent efficiency (%) per time (hours) (50% (1.25 mg/cm^3), 1 hour): 100%
Repellent efficiency (%) per time (hours) (50% (1.25 mg/cm^3), 2 hours): 100%
Repellent efficiency (%) per time (hours) (50% (1.25 mg/cm^3), 3 hours): 100%
Repellent efficiency (%) per time (hours) (50% (1.25 mg/cm^3), 4 hours): 100%
Repellent efficiency (%) per time (hours) (50% (1.25 mg/cm^3), 5 hours): 93.3%
Repellent efficiency (%) per time (hours) (50% (1.25 mg/cm^3), 6 hours): 86.7%
Repellent efficiency (%) per time (hours) (50% (1.25 mg/cm^3), 7 hours): 86.7%
Repellent efficiency (%) per time (hours) (50% (1.25 mg/cm^3), 8 hours): 86.7%
Repellent efficiency (%) per time (hours) (50% (1.25 mg/cm^3), 9 hours): 80%
Repellent efficiency (%) per time (hours) (50% (1.25 mg/cm^3), 10 hours): 73.3%
Repellent efficiency (%) per time (hours) (50% (1.25 mg/cm^3), 11 hours): 73.3%
Repellent efficiency (%) per time (hours) (50% (1.25 mg/cm^3), 12 hours): 73.3%
repellency (in words) (at the level of 0.0125 mg/cm^3): did not represent any repellency
time for which repellent efficiency of 100% was shown (at the level of 0.05 mg/cm^3): 30 min
time for which repellent efficiency of 100% was shown (at the level of 0.25 mg/cm^3): 150 min
Effective repellency duration (minute) (mean ± standard deviation) (concentration 0.5% (0.0125 mg/cm^3), time until arm bitten by two cumulative mosquitoes): 0 ± 0 min
Effective repellency duration (minute) (mean ± standard deviation) (concentration 2% (0.05 mg/cm^3), time until arm bitten by two cumulative mosquitoes): 60 ± 0 min
Effective repellency duration (minute) (mean ± standard deviation) [6]: 240 ± 0 min
Effective repellency duration (minute) (mean ± standard deviation) (concentration 10% (0.25 mg/cm^3), time until two cumulative bites, maximum measurement time 240 minutes, listed as citronellic acid): 240 min
Effective repellency duration (hour) (mean ± standard deviation) (concentration 15% (0.375 mg/cm^3)): 5.7 ± 2.03 h
Effective repellency duration (hour) (mean ± standard deviation) (concentration 30% (0.75 mg/cm^3)): 9.3 ± 1.76 h
Effective repellency duration (hour) (mean ± standard deviation) (concentration 30% (0.75 mg/cm^3), listed as citronellic acid): 9.3 h
Effective repellency duration (hour) (mean ± standard deviation) (concentration 50% (1.25 mg/cm^3)): 9.3 ± 1.76 h
Effective repellency duration (hour) (mean ± standard deviation) (concentration 50% (1.25 mg/cm^3), listed as citronellic acid): 9.3 h
repellent efficiency (for 8 hours at the level of 1.25 mg/cm^3): ~90%
